The values below come from article PMC8999917, “Structure–Activity Relationship of Synthetic Ginkgolic Acid Analogs for Treating Type 2 Diabetes by PTPN9 Inhibition” (International Journal of Molecular Sciences, 2022).

In general, IC50 refers to the concentration at which inhibition is half-maximal.

Structures are written as SMILES.

The target of one assay is T1, DUSP9 (Homo sapiens, UniProt Q99956).
T1 construct: made in house; host or cells: Escherichia coli Rosetta (DE3)
T1 sequence (Q99956 1-384): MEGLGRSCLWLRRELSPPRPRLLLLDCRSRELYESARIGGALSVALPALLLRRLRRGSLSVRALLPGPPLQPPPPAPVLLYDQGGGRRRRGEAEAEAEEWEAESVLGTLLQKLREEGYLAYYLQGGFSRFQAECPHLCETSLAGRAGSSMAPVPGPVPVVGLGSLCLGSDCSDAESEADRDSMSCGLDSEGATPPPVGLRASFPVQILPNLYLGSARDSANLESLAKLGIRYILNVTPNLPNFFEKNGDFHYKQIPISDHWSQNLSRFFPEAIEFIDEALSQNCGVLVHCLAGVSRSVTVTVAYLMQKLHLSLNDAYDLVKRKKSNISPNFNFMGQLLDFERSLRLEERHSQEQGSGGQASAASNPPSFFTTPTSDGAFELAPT
Nature of the assay: DUSP9 enzyme inhibition with DiFMUP substrate. The format is biochemical. As to conditions: DiFMUP 90 µM, DUSP9 200 nM; NA: no activity. The method, then: (§1) The purification and kinetic analyses of PTPN9 and DUSP9 (Ser277–581) were performed following methods described in the literature, with slight modifications. PAGE analysis data and enzyme kinetic constants are presented in Figure S1 and Table S1, respectively. Enzyme activity in the presence or absence of the compounds was measured using DiFMUP, a representative PTP fluorogenic substrate. First, the inhibitory effects of compounds 1–3 were evaluated using 50 µM PTPN9 and 20 µM DUSP9. There was an increase in the inhibitory activity of compound 1 for both enzymes as the number of CH2 units increased from 9 to 14 (Figure 2A,B).
(§2) Next, the IC50 values of the compounds, which induce a 50% inhibition of DiFMUP hydrolytic enzyme activity, were determined (Table 1). The IC50 values were determined from the dose–response enzyme inhibition curves of each compound. The dose–response curves for compounds 1e and 1f against PTPN9 and DUSP9, respectively, are presented in Figure 2C,D. Dose–response curves were also obtained for the other compounds (Figures S2 and S3).
(§3) The methods employed for PTP overexpression and purification have been described in a previous study. In brief, human PTPN9 and DUSP9 were cloned into a pET28a vector (Merk Millipore, Darmstadt, Germany) containing a hexahistidine (His6) tag or a maltose-binding protein (MBP) tag in its N-terminus (see Supplementary Materials). Recombinant genes were separately transformed into Escherichia coli Rosetta (DE3) (Merk Millipore, Darmstadt, Germany), and the overexpression of each gene was induced via the addition of 0.1 mM IPTG (Ducherfa Biochemie, Haarlem, RV, USA). After 16 h of incubation at 18 °C, cell pellets were obtained via centrifugation (3570× g at 4 °C for 15 min), resuspended in lysis buffer (50 mM Tris, pH: 7.5, 500 mM NaCl, 5% glycerol, 0.025% 2-mercaptoethanol, and 1 mM phenyl-methylsulfonyl fluoride (PMSF)), and lysed by ultrasonication. Subsequently, cell lysates were centrifuged at 29,820× g for 30 min at 4 °C; then, the supernatant was collected and incubated with a cobalt affinity resin (TALON® Metal Affinity Resin, Takara Korea, Seoul, Korea). After 1 h of incubation at 4 °C, the desired proteins were eluted by adding the lysis buffer supplemented with 100 mM imidazole. Samples were stored at –80 °C until use.
(§4) The enzymatic activities of purified PTPN9 and DUSP9 were measured using 6,8-difluoro-4-methylumbelliferyl phosphate (DiFMUP), the most widely used fluorogenic PTP substrate in the literature. To determine KM values, PTPN9 (0.15 nM) and DUSP9 (200 nM) were added to a reaction buffer (20 mM Bis-tris, pH: 7.0, 150 mM NaCl, 2.5 mM dithiothreitol (DTT), and 0.01% Triton X-100) containing DiFMUP (800, 400, 200, 100, 50, 25, 12.5, or 6.25 μM) in a 96-well black plate. The final reaction volume was 100 µL. The fluorescence intensity was continuously monitored for 10 min (Ex/Em = 355/460 nm) on a Victor™ X4 multilabel plate reader (Perkin Elmer, Norwalk, CT, USA). KM values were obtained using Lineweaver–Burk plots analysis.
(§5) To evaluate the enzyme inhibitory effects of GA and its analogs, 10 µl of the enzyme stock solution (1.5 nM PTPN9 and 2 µM DUSP9) in the reaction buffer was added into the mixture of DiFMUP (to a final concentration of 220 µM and 90 µM for PTPN9 and DUSP9, respectively) and each compound (to a final concentration of 50 µM and 20 µM for PTPN9 and DUSP9, respectively) was added to the reaction buffer. Enzyme activity was measured as described above. Half-inhibitory concentration (IC50) values were determined under similar conditions, except for the concentrations of the inhibitors (200, 100, 50, 25, 12.5, 6.25, or 3.125 µM for PTPN9 and 25, 12.5, 6.25, 3.125, 1.563, 0.782, or 0.391 µM for DUSP9). The dose-dependent curve was fitted to the four-parameter logistic regression equation, (y = a + (b – a)/(1 + (x/c)^d), to obtain IC50 values using the Kaleida Graph software Ver. 4.1.3. (Synergy Software Inc, PA, USA).

In assay [1] the test system is Akt phosphorylation in PA-induced insulin-resistant C2C12 cells. Put plainly: Palmitic acid-induced insulin resistance in C2C12 myotubes (p-Akt). In kind it is cell-based, mouse. The conditions noted are these: PA (250 µM, 16 h)-treated C2C12, 5 μM compound for 30 min with 100 nM insulin. The method, then: Since insulin plays an important role in regulating glucose metabolism through the redistribution of GLUT4 from intracellular vesicles to the cell surface, it is important to describe the interaction between 1e and insulin in the Akt pathway. […] Next, we evaluated the protective effects of 1e against PA-induced insulin resistance in C2C12 myotubes. To generate an insulin resistance model, C2C12 myotubes were treated with 250 µM PA in a serum-free medium for 16 h. Akt phosphorylation levels in PA-treated C2C12 cells decreased by 50% compared to levels in normal C2C12 cells (Figure 6C). Furthermore, in the presence of insulin and GA, Akt phosphorylation levels decreased only by 30% compared to levels in normal cells. […] In addition, the GA analogs induced no cytotoxic effects in C2C12 muscle cells (data not shown). […] The expression levels of glucose uptake-related proteins were determined via Western blotting, as previously described. In brief, differentiated 3T3-L1 cells were plated in six-well plates at a 1.5 × 10^4 cells/well density in a final volume of 2 mL. […] Secondary antibodies were added to the membranes at a concentration of 1:2000 for 1 h at room temperature, and immunoreactive bands were detected via ECL (GE Healthcare Korea Co., Ltd., Incheon, Korea). […]

The target of a further assay is T2, PTPN9 (Homo sapiens, UniProt P43378).
T2 construct: made in house; host or cells: Escherichia coli Rosetta (DE3)
T2 sequence (P43378 277-581): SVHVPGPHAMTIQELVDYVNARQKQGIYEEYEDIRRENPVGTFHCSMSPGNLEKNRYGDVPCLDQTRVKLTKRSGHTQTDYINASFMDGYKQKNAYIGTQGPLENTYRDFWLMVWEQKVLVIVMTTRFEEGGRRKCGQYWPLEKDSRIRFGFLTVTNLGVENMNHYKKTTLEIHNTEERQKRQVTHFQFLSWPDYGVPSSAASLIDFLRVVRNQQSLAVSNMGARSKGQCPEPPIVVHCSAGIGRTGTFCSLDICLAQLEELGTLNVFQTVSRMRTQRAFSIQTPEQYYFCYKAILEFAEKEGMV
Put plainly: PTPN9 enzyme inhibition with DiFMUP substrate. In kind it is biochemical. As to conditions: DiFMUP 220 µM, PTPN9 0.15 nM; NA: no activity. The protocol:
as §1, §2, §3, §4, §5

On to `CCCCCCCCCCCCCc1cccc(O)c1C(=O)O` [GA, Ginkgolic acid (C13:0), reference compound], for which the IC50 on DUSP9 came to 3.64 ± 0.11 µM; at PTPN9, 21.8 ± 0.45 µM. For the same compound, in assay [1], the “decrease of Akt phosphorylation levels compared to normal cells” value amounted to 30%.
